One assay concerns ApoE−/− mice. Kind of assay: Arteriosclerosis prevention and treatment, en face analysis of arteries. In kind it is in vivo. The settings on record: 14 weeks feedstuff, dosed over the last 4 weeks. The procedure:
The in vivo test using ApoE−/− mice was conducted in order to verify the arteriosclerosis prevention and treatment effect of Compounds 5 and 9, the developed materials of the present invention. ApoE−/− mice, as an arteriosclerosis disease model, were fed with […] feedstuff (21% high fat and 1.25% high cholesterol feedstuff) over 14 weeks, to thereby induce arteriosclerosis, and then Compounds 5 and 9 were administered to the mice over the last 4 weeks. The medicine treatment manner was adopted. Arteries of the mice were resected, and then analyzed by the en face method. As the result, it was confirmed that Compounds 5 and 9 had 23% and 18% decreases in occurrence of arteriosclerosis, respectively.

The next assay has as its target T1, hPPARg (Homo sapiens, UniProt P37231).
T1 construct: expressed in transfected cells; host or cells: CV-1 cells
T1 sequence (P37231 1-505): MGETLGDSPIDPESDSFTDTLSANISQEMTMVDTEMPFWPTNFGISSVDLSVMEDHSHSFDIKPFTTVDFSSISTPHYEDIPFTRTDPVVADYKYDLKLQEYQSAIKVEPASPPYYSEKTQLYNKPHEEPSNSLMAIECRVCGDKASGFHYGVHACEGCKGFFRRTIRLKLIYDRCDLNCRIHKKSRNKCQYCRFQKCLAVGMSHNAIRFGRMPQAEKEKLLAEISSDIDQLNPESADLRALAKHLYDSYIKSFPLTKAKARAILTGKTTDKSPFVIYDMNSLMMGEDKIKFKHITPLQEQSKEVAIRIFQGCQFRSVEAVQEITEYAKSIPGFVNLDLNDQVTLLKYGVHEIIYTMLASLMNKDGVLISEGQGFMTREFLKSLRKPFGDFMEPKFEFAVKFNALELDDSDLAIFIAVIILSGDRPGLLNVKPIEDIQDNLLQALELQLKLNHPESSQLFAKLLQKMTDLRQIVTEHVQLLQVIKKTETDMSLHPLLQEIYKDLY
Kind of assay: Transfection assay in CV-1 cells, hPPARg. In kind it is cell-based. The settings on record: luciferase reporter. Here is the method:
(§1) This assay was conducted by using CV-1 cells. The cells were cultured on a 96-well plate with a DMEM medium containing 10% FBS, DBS (delipidated), and 1% penicillin/streptomycin in 37° C. of an incubator 5% of carbon dioxide. Test was conducted in four stages of cell inoculation, transfection, treatment with the developed material, and result confirmation. The CV-1 cells were inoculated on the 96-well plate at a cell density at 5,000 cells/well, and after 24 hours, transfection was performed. PPARs plasmid DNA, reporter DNA, and β-galactosidase DNA were mixed with a transfection reagent, and then used to treat the cells. The developed material was dissolved in dimethylsulfoxide (DMSO), and then was used to treat the cells by using media at various concentrations. After 24 hours of culturing in an incubator, the cells were lysed with a lysis buffer and luciferase activity and β-galactosidase activity were measured using a luminometer and a microplate reader. The measured luciferase value was calibrated with the β-galactosidase value, and this value was depicted on a graph and EC50 was determined.
Background: A reporter such as luciferase makes a cellular process visible.

Assay [1] concerns mice with high-fat-induced diabetes. The assay can be described thus: Glucose tolerance test (GTT) in mice with high-fat-induced diabetes. In kind it is in vivo. The settings on record: 10 mg/Kg/day over 70 days; glucose 1.5 g/kg. Here is the method:
The glucose tolerance test (GTT) was conducted in order to verify the diabetes improvement effect of the material according to the present invention. Glucose (1.5 g/kg) was abdominally administer to mice with high-fat-induced diabetes, which was orally administered with medicine over 70 days, and then the blood glucose level change was measured for 2 hours. […] In contrast, the mouse control group administered with the vehicle […] normal blood glucose level even after 120 minutes.

For assay [2], the system named is C57BL/6 mice with obesity induced by 35% fat feedstuff. Kind of assay: Obesity suppression effect in high-fat diet mice. In kind it is in vivo. The settings on record: 10 mg/kg/day oral, 60-day high-fat diet (35% fat). Here is the method:
Test using mice was conducted in order to confirm the in vivo effect of the material according to the present invention. 8-week old C57BL/6 mice were used, and feedstuff containing 35% fat was used to induce obesity. A. vehicle and Compounds 5 and […] were orally administered. over 60-day period of high-fat diet.

In a further assay the target is T2, hPPAR δ (Homo sapiens, UniProt Q03181).
T2 construct: expressed in transfected cells; host or cells: CV-1 cells
T2 sequence (Q03181 1-441): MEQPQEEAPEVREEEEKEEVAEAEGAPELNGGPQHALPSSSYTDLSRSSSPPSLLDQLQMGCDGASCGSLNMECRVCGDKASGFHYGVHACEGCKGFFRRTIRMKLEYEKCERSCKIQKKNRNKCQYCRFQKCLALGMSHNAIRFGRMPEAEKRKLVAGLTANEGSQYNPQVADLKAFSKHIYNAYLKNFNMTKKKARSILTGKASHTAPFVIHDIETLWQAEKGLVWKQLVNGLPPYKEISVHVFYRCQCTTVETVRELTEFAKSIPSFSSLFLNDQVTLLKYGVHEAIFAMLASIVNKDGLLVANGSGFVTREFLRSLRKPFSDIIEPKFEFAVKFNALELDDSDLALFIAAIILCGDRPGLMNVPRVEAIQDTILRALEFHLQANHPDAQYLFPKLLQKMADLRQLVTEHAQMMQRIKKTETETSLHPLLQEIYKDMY
Kind of assay: Transfection assay in CV-1 cells, hPPAR δ. In kind it is cell-based. The settings on record: luciferase reporter. The procedure: as §1

Assay [3] deals with slow muscle fibers in the gastrocnemius muscle. Kind of assay: Muscle fiber type analysis (muscle colour, metachromatic staining, slow type MHC immunostaining). In kind it is in vivo, mice. The text has this:
The slow muscle fiber has a lot of myoglobin, which is oxygen transfer protein, and thus appears redder than the fast muscle. When the skin of the fetus was removed and the muscle thereof was observed, it may be seen that administered mice group had redder muscle (FIGS. 7A and 7B). In order to confirm whether or not slow muscle fiber generation was increased due to the administration material (CMDD1111), hind legs thereof were resected and then frozen in OCT. Frozen muscle tissues were cut into […] sections by using a freezing cryotome, and mounted on slides, which was then subjected to metachromatic staining. The slow muscle fiber was stained darker blue than the fast muscle by the metachromatic staining. […] Muscle fibers may be discernable even by immunostaining using an isoform antibody of the myosin heavy chain (MHC). The present inventors conducted immunostaining using the slow type MHC in order to confirm whether or not slow muscle fibers were increased by the administration material (CMDD1111).

Each structure is given as a SMILES string. pEC50: −log10 of the molar value.

As usually defined, the pEC50 is −log10 of the EC50, conventionally taken in molar units. A low value points to a large EC50.

For the compound `Cc1cc(SC(Cc2ccc(-c3ccccc3)cc2)c2sc(-c3ccc(C(F)(F)F)cc3)nc2C)ccc1OCC(=O)O` (stereo not drawn) [Compound 5], the “decrease in occurrence of arteriosclerosis” value in the assay on ApoE−/− mice is 23%. Besides, the “EC50 hPPARg” value at hPPARg is listed as “ia”. Moreover, in assay [1], the “blood glucose level change between 20 and 40 minutes versus control” value is reported as “rapid decrease”; the “complete glucose clearance after” value came to 100 min. In assay [2], the “obesity suppression effect versus vehicle control” value came to 35%. This compound gave a pEC50 on hPPAR δ of 8.48.
Regarding `Cc1cc(SC(Cc2ccc(-c3ccc(F)cc3)cc2)c2sc(-c3ccc(C(F)(F)F)cc3)nc2C)ccc1OCC(=O)O` (stereo not drawn) [Compound 9], the “decrease in occurrence of arteriosclerosis” value in the assay with ApoE−/− mice came to 18%. For the same compound, on hPPARg, the “EC50 hPPARg” value is listed as “ia”. Further, in assay [1], the “blood glucose level change between 20 and 40 minutes versus control” value is given as “rapid decrease”; the “complete glucose clearance after” value worked out at 100 min. The “obesity suppression effect versus vehicle control” value in assay [2] is reported as 33%. Besides, the pEC50 on hPPAR δ is 8.41.
For the compound `Cc1cc(SC(Cc2ccccc2)c2sc(-c3ccc(C(F)(F)F)cc3)nc2C)ccc1OCC(=O)O` (stereo not drawn) [CMDD1111], the “muscle colour after skin removal” value in assay [3] (fetal reprogramming, maternal 10 mg/kg) is “redder muscle”. Further, in assay [3] (gastrocnemius muscle), the “muscle fibers responsive to slow type MHC, immunostaining” value is on record as “increased” and the “slow (dark blue) muscle fibers, metachromatic staining” value is on record as “increasingly generated”.

The record behind these values is US20130197043A1, “USE OF THE FETAL REPROGRAMMING OF A PPAR AGONIST” (SNU R&DB FOUNDATION, priority 2010, published 2013).
